Source: the Deep4Chem optical property database
One block for each molecule: values may come before it.

Experiment: solvent given as SMILES

absorption maximum (in CC#N): 618 nm
Structure (SMILES): CC1=CC(/C=C/c2ccc([N+](C)(C)C)cc2)=[N+]2C1=C(c1ccc(C#CCO[C@@H]3O[C@H](CO)[C@@H](O)C(O)[C@H]3O)cc1)c1c(C)cc(/C=C/c3ccc([N+](C)(C)C)cc3)n1[B-]2(F)F (stereo partly drawn)

absorption maximum (in C1CCCCC1): 308 nm
Structure (SMILES): CC(C)(C)c1ccc2c(c1)Cc1cc(C(C)(C)C)ccc1-2

absorption maximum (in O): 260 nm
Structure (SMILES): COc1cc(C(=O)O)cc(OC)c1O

absorption maximum (in ClCCl): 343 nm
Structure (SMILES): CC(C)(C)NC(=O)c1ccc(Br)c2ccc3c4ccccc4c4ccccc4c3c12

absorption maximum (in ClC(Cl)Cl): 410 nm
Structure (SMILES): Cc1ccccc1C1CC(=O)Oc2c1c1nc3ccccc3nc1c1ccccc21 (stereo not drawn)

absorption maximum (in CS(C)=O): 566 nm
Structure (SMILES): CCCCN1/C(=C/C=C/C2=[N+](C)c3ccccc3C2(C)C)C(C)(C)c2cc(OC)ccc21

absorption maximum (in ClCCl): 518 nm
Structure (SMILES): Clc1nnc(O/N=C/c2ccc(N(c3ccccc3)c3ccccc3)cc2)nn1

absorption maximum (in ClCCl): 399 nm
Structure (SMILES): COc1ccc(C2=Nc3cccc4[n+]3[B-](F)(O2)OC(c2ccc(OC)cc2)=N4)cc1

absorption maximum (in CO): 278 nm
Structure (SMILES): Cc1ccc2nnn(-c3c(C#N)c4c(N)ncnc4n3[C@H]3C[C@H](O)[C@@H](CO)O3)c2c1

absorption maximum (in C1CCOC1): 349 nm
Structure (SMILES): Cc1cc(C2=C(c3cc(C)sc3C)S(=O)(=O)c3ccccc32)c(C)s1

absorption maximum (in CCO): 475 nm
Structure (SMILES): CCOC(=O)/C(=C1\C(=O)C(O)=C1C=C1N(C)c2ccccc2C1(C)C)[N+](=O)[O-]

absorption maximum (in CC1CCCCC1): 364 nm
absorption maximum (in CC#N): 364 nm
absorption maximum (in CO): 364 nm
Structure (SMILES): CCN(CC)c1ccc(-c2nc3cc(C(NC(=O)OC(C)(C)C)C(=O)OC)ccc3o2)c(O)c1 (stereo not drawn)

absorption maximum (in C1CCCCC1): 385 nm
absorption maximum (in C1CCOC1): 402 nm
absorption maximum (in C1COCCO1): 393 nm
absorption maximum (in CC#N): 392 nm
absorption maximum (in CC(C)(C)O): 407 nm
absorption maximum (in CC(C)O): 404 nm
absorption maximum (in CCCCCC): 383 nm
absorption maximum (in CCCCO): 405 nm
absorption maximum (in CCO): 402 nm
absorption maximum (in CCOC(C)=O): 397 nm
absorption maximum (in CN(C)C=O): 407 nm
absorption maximum (in CO): 399 nm
absorption maximum (in CS(C)=O): 410 nm
absorption maximum (in ClC(Cl)Cl): 398 nm
absorption maximum (in ClCCl): 392 nm
absorption maximum (in O): 395 nm
absorption maximum (in OCCO): 401 nm
Structure (SMILES): Cc1cc(O)c(C(C)C)cc1/N=C/c1ccc([N+](=O)[O-])cc1

absorption maximum (in ClCCl): 355 nm
Structure (SMILES): O=c1c2ccccc2nc2ccc(-c3ccc(N(c4ccccc4)c4ccccc4)cc3)cn12

absorption maximum (in ClCCl): 436 nm
Structure (SMILES): O=c1c2cccc3cccc(c32)c2nc3c4ccccc4c4ccccc4c3n12

More lines, now with the values behind:

Structure (SMILES): CCC1(CC)c2cc(-c3ccc(C(C)(C)C)cc3)ccc2-c2ccc(-c3ccc4c(c3)C(CC)(CC)c3cc(-c5ccc6c(c5)C(CC)(CC)c5cc(-c7ccc(C(C)(C)C)cc7)ccc5-6)ccc3-4)cc21
absorption maximum (in CO): 360.54 nm

Structure (SMILES): CN(C)c1ccc(/C=C/c2cc[n+](CCCCC[n+]3ccc(/C=C/c4ccc(N(C)C)cc4)cc3)cc2)cc1
absorption maximum (in CC1COC(=O)O1): 478 nm
absorption maximum (in CC#N): 478 nm
absorption maximum (in CC(C)=O): 476 nm
absorption maximum (in CC(C)O): 486 nm
absorption maximum (in CCO): 492 nm
absorption maximum (in CN(C)C=O): 478 nm
absorption maximum (in CO): 484 nm
absorption maximum (in CS(C)=O): 479 nm
absorption maximum (in ClC(Cl)Cl): 494 nm
absorption maximum (in O): 457 nm
absorption maximum (in c1ccncc1): 490 nm

Structure (SMILES): COC(=O)c1ccc(/C=C2\C=C(c3ccc(C#N)cc3)OC2=O)cc1
absorption maximum (in C1COCCO1): 404 nm

Structure (SMILES): C#Cc1ccc2cc3c(C)cc(=O)oc3cc2c1
absorption maximum (in CCO): 334 nm

Structure (SMILES): CSc1cc(-c2cc3cc4c5c(c3oc2=O)CCCN5CCC4)oc(=O)c1C#N
absorption maximum (in C1CCOC1): 532 nm
absorption maximum (in CC#N): 537 nm
absorption maximum (in CC(C)=O): 536 nm
absorption maximum (in CCOC(C)=O): 527 nm
absorption maximum (in CN(C)C=O): 545 nm
absorption maximum (in CO): 537 nm
absorption maximum (in CS(C)=O): 549 nm
absorption maximum (in Cc1ccccc1): 527 nm
absorption maximum (in ClC(Cl)Cl): 538 nm
absorption maximum (in ClCCl): 541 nm

Structure (SMILES): N#CSC1=CC2=C(c3ccccc3)c3cc(SC#N)c(N4CCOCC4)n3[B-](F)(F)[N+]2=C1N1CCOCC1
absorption maximum (in CC#N): 588 nm
absorption maximum (in CCCCCC): 599 nm
absorption maximum (in CCOC(C)=O): 593 nm
absorption maximum (in CO): 585 nm
absorption maximum (in ClCCl): 596 nm

Structure (SMILES): CN(C)c1cccc2c1C(=O)c1ccccc1C2=O
absorption maximum (in C1CCCCC1): 487 nm
absorption maximum (in CC1CCCCC1): 487.5 nm
absorption maximum (in CC#N): 502 nm
absorption maximum (in CCC(C)CC): 487 nm
absorption maximum (in CCCCCC): 487.5 nm
absorption maximum (in CCOC(C)=O): 498 nm

Structure (SMILES): CCCCCCCCCCCCN1C(=O)c2c(c3ccc4cc(-c5ccc(C#N)cc5)c(OC)cc4c3c3c2ccc2cc(-c4ccc(C#N)cc4)c(OC)cc23)C1=O
absorption maximum (in ClCCl): 427 nm

Structure (SMILES): COc1ccc2ncccc2c1
absorption maximum (in CC#N): 329 nm
absorption maximum (in CCCC#N): 329 nm
absorption maximum (in Cc1ccccc1): 331 nm

Structure (SMILES): CCC1(CC)c2ccccc2-c2ccc(C#Cc3ccc4ccc5cccc6ccc3c4c56)cc21
absorption maximum (in C1CCCCC1): 401 nm
absorption maximum (in C1CCOC1): 402 nm
absorption maximum (in CC#N): 399 nm
absorption maximum (in CCOC(C)=O): 400 nm
absorption maximum (in CN(C)C=O): 404 nm
absorption maximum (in Cc1ccccc1): 405 nm
absorption maximum (in ClC(Cl)Cl): 404 nm
absorption maximum (in ClCCl): 403 nm

Structure (SMILES): COc1ccc(-c2ccc(OC)cc2)cc1
absorption maximum (in C1CCCCC1): 271.81 nm

Structure (SMILES): c1ccc(C2CCN3COc4c5ccccc5c5c6c7c(c2c3c46)C(c2ccccc2)CCN7CO5)cc1 (stereo not drawn)
absorption maximum (in C1CCCCC1): 403 nm
absorption maximum (in C1CCOC1): 405 nm
absorption maximum (in C1COCCO1): 405 nm
absorption maximum (in CC#N): 405 nm
absorption maximum (in CC(C)=O): 406 nm
absorption maximum (in CCOC(C)=O): 404 nm
absorption maximum (in CCOCC): 404 nm
absorption maximum (in CN(C)C=O): 407 nm
absorption maximum (in CO): 402 nm
absorption maximum (in CS(C)=O): 408 nm
absorption maximum (in Cc1ccccc1): 406 nm
absorption maximum (in ClC(Cl)Cl): 404 nm
absorption maximum (in ClCCl): 405 nm

Structure (SMILES): CCCCn1c2ccc(C#Cc3cccs3)cc2c2c1c1c3ccc(C#Cc4cccs4)cc3n(CCCC)c1c1c3ccc(C#Cc4cccs4)cc3n(CCCC)c21
absorption maximum (in C1CCOC1): 348 nm

Structure (SMILES): Fc1ccc(-c2cccc3ncc(-c4ccccc4)n23)cc1
absorption maximum (in ClCCl): 336 nm

Structure (SMILES): C[Si](C)(C)C#Cc1ccc2c3cccc4cccc(c5cccc1c52)c43
absorption maximum (in C1CCCCC1): 459 nm

Structure (SMILES): CN(C)c1[se]c(-c2ccccc2)nc1-c1ccccc1
absorption maximum (in ClC(Cl)Cl): 326 nm

Structure (SMILES): COC(=O)c1ccc(/C=C2\C=C(c3ccc(OC)c(OC)c3)OC2=O)cc1
absorption maximum (in C1COCCO1): 423 nm

Structure (SMILES): COC(=O)C(Cc1ccc2oc(-c3ccc4c(c3)c3ccccc3n4-c3ccccc3)nc2c1)NC(=O)OC(C)(C)C (stereo not drawn)
absorption maximum (in C1CCCCC1): 326 nm
absorption maximum (in C1CCOC1): 327.29 nm
absorption maximum (in C1COCCO1): 327.3 nm
absorption maximum (in CC1CCCO1): 326.9 nm
absorption maximum (in CC1COC(=O)O1): 326 nm
absorption maximum (in CC#N): 325.9 nm
absorption maximum (in CC(C)=O): 325.9 nm
absorption maximum (in CC(C)CC(C)(C)C): 325.1 nm
absorption maximum (in CC(C)CO): 335.8 nm
absorption maximum (in CC(C)O): 327 nm
absorption maximum (in CC(C)OC(C)C): 327.4 nm
absorption maximum (in CC(O)CO): 338 nm
absorption maximum (in CCC(C)CC): 324.4 nm
absorption maximum (in CCCCC): 324.5 nm
absorption maximum (in CCCCCC): 325.3 nm
absorption maximum (in CCCCCCCCC): 326 nm
absorption maximum (in CCCCCCCCCC): 326.2 nm
absorption maximum (in CCCCCCCO): 328.3 nm
absorption maximum (in CCCCCCO): 328.2 nm
absorption maximum (in CCCCCO): 327.3 nm
absorption maximum (in CCCCO): 327.4 nm
absorption maximum (in CCO): 334.69 nm
absorption maximum (in CCOC(C)=O): 325.6 nm
absorption maximum (in CCOCC): 325.3 nm
absorption maximum (in CN(C)C=O): 327.9 nm
absorption maximum (in CO): 334.2 nm
absorption maximum (in COCCOC): 326.8 nm
absorption maximum (in CS(C)=O): 332.6 nm
absorption maximum (in Cc1ccccc1): 328.9 nm
absorption maximum (in Cc1ccccc1C): 329.1 nm
absorption maximum (in ClC(Cl)Cl): 329.7 nm
absorption maximum (in ClCCl): 328.8 nm
absorption maximum (in NC=O): 327.7 nm
absorption maximum (in OC1CCCCC1): 328.6 nm
absorption maximum (in OCCO): 338.9 nm
absorption maximum (in c1ccccc1): 328.8 nm

Structure (SMILES): COC(=O)c1ccc(C2=C3C=c4sc(-c5cccs5)cc4=[N+]3[B-](F)(F)n3c2cc2sc(-c4cccs4)cc23)cc1
absorption maximum (in ClCCl): 684 nm

Structure (SMILES): CCC1(CC)c2cc(/C=C/c3ccc(N(c4ccccc4)c4ccccc4)cc3)ccc2-c2ccc(/C=C/c3ccc(N(c4ccccc4)c4ccccc4)cc3)cc21
absorption maximum (in Cc1ccccc1): 412 nm

Structure (SMILES): O=P1(c2ccccc2)c2cccc3c4ccccc4c4ccc1n4c23 (stereo not drawn)
absorption maximum (in ClCCl): 378 nm

Structure (SMILES): CCCCCCCCCCCCC(CCCCCCCCCC)Cn1c2cc(/C=C/C=C(C#N)C#N)c3cccc4c5cccc6c(/C=C/C=C(C#N)C#N)cc1c(c65)c2c34 (stereo not drawn)
absorption maximum (in C1CCCCC1): 638 nm
absorption maximum (in CC#N): 599 nm
absorption maximum (in Cc1ccccc1): 597 nm
absorption maximum (in ClCCl): 611 nm

Structure (SMILES): C[C@]12C(=O)NC(=O)N([C@H]3CC(O)[C@@H](CO)O3)[C@H]1[C@H]1Oc3cc4oc(=O)ccc4cc3[C@H]12 (stereo partly drawn)
absorption maximum (in CC(C)O): 327 nm
absorption maximum (in CCO): 327 nm
absorption maximum (in CCOCC): 325 nm
absorption maximum (in CO): 328 nm
absorption maximum (in O): 329 nm

Structure (SMILES): CC(C)(C)c1ccc2c(c1)c1cc(C(C)(C)C)ccc1n2-c1ccc(-n2c3ccc(C(C)(C)C)cc3c3cc(C(C)(C)C)ccc32)c(C(=O)c2ccncc2)c1
absorption maximum (in Cc1ccccc1): 418 nm
